{"source": "paper PMC3798130", "about": "(Angewandte Chemie (International Ed. in English), 2013)", "key": {"[1]": {"target": "T1, JMJD2E (KDM4E) (Homo sapiens, UniProt B2RXH2)", "T1 sequence (B2RXH2 1-506)": "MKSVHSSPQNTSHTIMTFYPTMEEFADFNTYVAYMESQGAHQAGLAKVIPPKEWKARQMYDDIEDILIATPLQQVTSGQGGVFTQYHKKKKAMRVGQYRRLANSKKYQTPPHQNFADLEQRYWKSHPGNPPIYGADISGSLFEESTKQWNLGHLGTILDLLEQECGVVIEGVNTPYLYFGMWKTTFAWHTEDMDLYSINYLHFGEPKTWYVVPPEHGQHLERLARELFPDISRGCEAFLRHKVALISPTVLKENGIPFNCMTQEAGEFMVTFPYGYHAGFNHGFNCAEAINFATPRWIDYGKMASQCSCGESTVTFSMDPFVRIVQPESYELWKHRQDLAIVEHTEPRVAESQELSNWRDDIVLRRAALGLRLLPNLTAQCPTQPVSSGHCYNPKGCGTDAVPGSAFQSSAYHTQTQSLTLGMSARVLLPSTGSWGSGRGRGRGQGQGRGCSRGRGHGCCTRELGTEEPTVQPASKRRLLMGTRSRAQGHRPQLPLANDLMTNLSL", "assay": "MALDI-TOF MS activity assay", "format": "biochemical", "settings": "1 hour, 25 °C, pH 7.5, mass gain"}, "[2]": {"target": "T1, JMJD2E (KDM4E)", "assay": "Kinetic parameters for reactions of lysine analogue peptides with JMJD2E", "format": "biochemical", "settings": "MALDI-TOF initial rates"}}}
{"substance": "ART-Lys(Me3)-QTAR-Lys(Me/iPr)-STGGKA [H3 Lysine-9(Me/iPr)]", "values": [{"measurement": "mass of product greater than substrate peptide (hydroxylation)", "setting": "[1]", "value": 16, "unit": "Da"}]}
{"substance": "ART-Lys(Me3)-QTAR-Lys(iPr)-STGGKA [H3 Lysine-9(iPr)]", "values": [{"measurement": "mass of product greater than substrate peptide (hydroxylation)", "setting": "[1]", "value": 16, "unit": "Da"}, {"measurement": "KM, Vmax and kcat compared with other peptides", "setting": "[2]", "value": "higher than values for the other three peptides"}]}
